Literature values in US20150313913A1, “POSITIVE ALLOSTERIC MODULATORS OF THE GABA-A RECEPTOR IN THE TREATMENT OF AUTISM” (UNIVERSITY OF WASHINGTON THROUGH ITS CENTER FOR …, priority 2013, published 2015).

Target: T1, GABA-A α1 subtype (Homo sapiens, UniProt P14867+P18507)
T1 sequence (P14867 28-456): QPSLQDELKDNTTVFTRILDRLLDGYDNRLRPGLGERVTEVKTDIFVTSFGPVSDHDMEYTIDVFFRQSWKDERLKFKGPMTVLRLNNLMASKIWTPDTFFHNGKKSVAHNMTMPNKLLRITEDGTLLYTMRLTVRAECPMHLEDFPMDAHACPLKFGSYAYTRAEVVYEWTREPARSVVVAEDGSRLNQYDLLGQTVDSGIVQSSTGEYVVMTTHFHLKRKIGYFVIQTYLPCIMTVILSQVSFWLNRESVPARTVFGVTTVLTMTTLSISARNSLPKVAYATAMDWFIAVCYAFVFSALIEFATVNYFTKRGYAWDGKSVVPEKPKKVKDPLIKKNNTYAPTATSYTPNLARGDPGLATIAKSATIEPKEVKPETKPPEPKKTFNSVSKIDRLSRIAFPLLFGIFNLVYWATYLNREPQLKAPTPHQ
T1 sequence (P18507 40-467 limits assumed): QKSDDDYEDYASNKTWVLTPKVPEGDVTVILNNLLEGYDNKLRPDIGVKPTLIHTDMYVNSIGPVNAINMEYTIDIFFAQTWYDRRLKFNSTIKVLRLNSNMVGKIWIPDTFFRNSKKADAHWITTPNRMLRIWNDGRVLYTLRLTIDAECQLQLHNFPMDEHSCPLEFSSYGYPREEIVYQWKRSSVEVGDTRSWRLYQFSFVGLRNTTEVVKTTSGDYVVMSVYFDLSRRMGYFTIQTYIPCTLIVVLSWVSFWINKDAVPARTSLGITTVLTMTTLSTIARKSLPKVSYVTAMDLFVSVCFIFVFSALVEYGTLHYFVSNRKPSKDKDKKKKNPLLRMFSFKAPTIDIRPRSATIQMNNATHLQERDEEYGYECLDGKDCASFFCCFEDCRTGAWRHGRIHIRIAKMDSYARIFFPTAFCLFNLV
T1 sequence (P28472 26-473 partner): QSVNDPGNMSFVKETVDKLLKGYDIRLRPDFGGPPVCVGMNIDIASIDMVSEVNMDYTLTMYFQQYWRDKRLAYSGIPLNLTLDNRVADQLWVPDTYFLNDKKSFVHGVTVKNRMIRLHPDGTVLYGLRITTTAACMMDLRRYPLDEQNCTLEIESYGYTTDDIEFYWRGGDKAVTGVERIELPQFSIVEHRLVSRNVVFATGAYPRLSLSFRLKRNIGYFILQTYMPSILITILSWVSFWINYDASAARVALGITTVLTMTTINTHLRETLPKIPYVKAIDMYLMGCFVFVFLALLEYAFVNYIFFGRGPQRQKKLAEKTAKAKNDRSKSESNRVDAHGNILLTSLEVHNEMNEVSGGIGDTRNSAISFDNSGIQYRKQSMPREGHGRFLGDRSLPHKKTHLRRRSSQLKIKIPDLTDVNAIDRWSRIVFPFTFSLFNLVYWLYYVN
Conditions: cited from earlier work

Structure (SMILES): Cn1ncnc1COc1nn2c(-c3cc(F)ccc3F)nnc2cc1C(C)(C)C [L-838,417]
- action at the α1 subtype: antagonist
